EP0343643B1, “Arylmethylenyl derivatives of thiazolidnones, imidazolidinones and oxazolidinones useful as antiallergy agents and antiinflamatory agents” (WARNER-LAMBERT COMPANY, priority 1988, dated 1989)
Values belong to the compound of their own block, whether it stands above or below them.

Assays:
human basophils = assay: Histamine release from human basophils (HHB), anti-IgE challenge; type: cell-based; set-up: key to HHB % Inhibition of Histamine Release at 33 µM: *: Indicates not active at 33 µM; details: 33 µM drug, human basophils challenged with anti-IgE
From the text: HISTAMINE RELEASE FROM HUMAN BASOPHILS (hereinafter HHB)
The HHB assay quantitates active histamine release, and its inhibition by drugs, from basophils of human blood. Thus, the assay provides evaluation of the compounds of formula I for treating the conditions or diseases as is the present invention. As described herein the assay includes modifications of the method described by R. P. Siraganian in "An Automated Continuous-Flow System for the Extraction and Fluorometric Analysis of Histamine", Anal. Biochem., 57, 383-394 (1974).
Blood is drawn from allergic donors (chosen on the basis of adequate histamine release induced by a challenge), using standard venipuncture methods, into Vacutainers with EDTA in water as anticoagulant. The blood samples are placed briefly on a rotary mixer. The blood is mixed with Hespan (hydroxy ethyl starch, 0.5 ml per 1.0 ml of blood), the tube inverted several times to mix and then left undisturbed at room temperature until a sharp separation is observed between the settled red cells and the leukocyte and platelet-rich plasma. This usually occurs within 35-45 minutes.
The plasma fraction is removed and centrifuged for 12 minutes at 4°C at 1050 RPM (100 Xg). The platelets remain in the plasma and are discarded. The pelleted leukocytes are shaken gently to disrupt the cell button and washed twice with HA buffer containing 0.005 M EDTA and resuspended in HACM buffer to approximately one-quarter the original blood volume. A sample is prepared for Hematology, where a total white blood cell and platelet count is done using a Coulter Counter.
Aliquots (0.1 ml) of cells are added to triplicate assay tubes containing 0.4 ml of either 6% perchloric acid (for total histamine content), vehicle control (for spontaneous release), or drug. The tubes are incubated at room temperature for 8 minutes, and then placed in a 37°C water bath for 2 more minutes. Buffer or challenge agents (at 37°C) are added to the tubes and they are incubated for an additional 45 minutes at 37°C in a shaking water bath. The tubes are then spun at 2000 RPM (1200 g) for 3 minutes to pellet the cells and the supernatants are removed and assayed for histamine by the fluorometric method.
A 300 µM stock solution of each test compound is prepared in distilled water, using 0.5 ml DMSO/100 ml and/or 0.2 ml of 1N NaOH or HCl and/or heat to aid in dissolution. Five ml of the stock solution is diluted (1:2) with 5 ml of two times concentrated HACM buffer to yield the stock working concentration of 150 µM. When added to the cells and stimulus, a final test concentration of 100 µM drug results. Further dilutions are made with HACM buffer for 33, 10, 3.3, 1.0 µM, etc.
Short ragweed and house dust extracts (Greer Laboratories, Inc.) are supplied as aqueous extracts in stock concentrations of 40,000 and 10,000 protein nitrogen units per milliliter (PNU/ml), respectively. Aqueous solutions of anti-IgE antisera (rabbit-raised antibody) are purchased from Dako via Accurate Chemicals. The aqueous solutions of ragweed, house dust, and anti-IgE are diluted 1:2 with two times concentrated HACM and then further diluted with HACM to yield final stock concentrations of 6000 PNU/ml for ragweed and house dust and 1:50 dilution for the anti-IgE antisera. Further dilutions for working solutions are made in HACM buffer. All stock and working solutions are stored at 4°C. Working solutions comprise 1/6 of the final volume in the cell reaction, therefore, working solutions of challenge agents are made up six times the required final concentration.
In each experiment, cells are challenged according to the previously determined sensitivity of that donor to the particular challenge agent. Short ragweed and house dust concentrations are expressed in PNU/ml, and anti-IgE antisera is expressed as dilutions, e.g., IE-5 (1:100,000), 3E-5 (1:30,000), and IE-4 (1:10,000).
The total histamine concentration in the "total" (acid-treated) samples must be 15 ng/ml to be acceptable. […]

[1] = tested on: carrageenan footpad edema; assay: Carrageenan-induced rat foot paw edema-2 (CFE-2) assay; type: in vivo; details: dosed one hour before carrageenan, edema measured five hours after
Procedure: Carrageenan-Induced Rat Foot Paw Edema-2 (CEF-2) Assay: Protocol
Carrageenan solution (1% w/v) is prepared by dissolving 100 mg carrageenan (Marine Colloidal Div., Springfield, NJ) in 10 ml of sterile saline (0.9%) solution (Travenol). The solution is vortexed for 30 to 45 minutes. Animals are dosed with compound one hour before carrageenan challenge. Foot paw edema is induced by injecting 0.10 ml of the 1% carrageenan subcutaneously into the plantar portion of the right hind paw of each rat under light anesthesia. Initial foot paw volume is measured immediately following carrageenan challenge using mercury plethysmography (Buxco Electronics). Edemia is measured five hours after carrageenan. The difference between the five-hour and the initial paw volume is expressed as delta edema. The delta edema for each test group of animals is used to calculate the percent inhibition of edema achieved by the compound at the test dose compared with the vehicle control group. The ID₄₀ (the dose at which swelling is inhibited by 40%) is calculated by probit analysis for the dose at which 40 percent inhibition occurs.

[2] = tested on: cellular 5-cyclooxygenase; assay: ARBC whole cell cyclooxygenase assay (PGF2α formation in RBL-1 cells); type: cell-based, rat; set-up: key: N inactive at screening concentration; details: A23187 stimulated, PGF2α by RIA
Procedure: (§1) ARBL/ARBC Whole Cell 5-Lipoxygenase and Cyclooxygenase Assays The rat basophilic Leukemia cell line (RBL-1) was obtained from the American Type Culture Collection (Rockville, MD). Radioimmunoassay (RIA) kits of LTB₄ and PGF2α were obtained from Amersham (Arlington Heights, IL) and Seragen (Boston, MA), respectively. RBL-1 cells are grown in suspension culture in Eagle's minimum essential medium supplemented with 12% fetal bovine serum at 37°C in an incubator supplied with air-5% carbon dioxide. Cells are harvested by centrifugation. They are washed with cold phosphate buffered saline pH 7.4 (PBS; NaCl, 7.1 g; Na₂HPO₄, 1.15 g; KH₂PO₄, 0.2 g; and KCl, 0.2 g/l). Cells are finally suspended in PBS containing 1.0 mM calcium at a density of 2 x 10⁶ cells/ml. […] Calcium ionophore A23187 (5 µM) is added and cells are incubated for seven minutes at 37°C. The reaction is stopped by chilling the tubes on ice for ten minutes. Cells are separated by centrifugation and the supernatant is stored at -20°. Aliquots (100 µl) are analyzed for LTB₄ and PGF2α using radioimmunoassay kits as provided by the supplier. Table 1 contains biochemical data obtained from this whole cell assay as IC₅₀s which are calculated as the amount of test compound causing 50% inhibition of LTB₄ or PGF2α formation.

cellular 5-lipoxygenase = molecular target: T1, cellular 5-lipoxygenase (Rattus norvegicus, UniProt P12527); assay: ARBL whole cell 5-lipoxygenase assay (LTB₄ formation in RBL-1 cells); type: cell-based; details: A23187 stimulated, LTB₄ by RIA, read-out: ARBL Percent inhibition of cellular 5-lipoxygenase at 16 µM
T1 construct: ARBL/ARBC Whole Cell 5-Lipoxygenase and Cyclooxygenase Assays; host or cells: RBL-1 (rat basophilic leukemia) cells
T1 sequence (P12527 1-673): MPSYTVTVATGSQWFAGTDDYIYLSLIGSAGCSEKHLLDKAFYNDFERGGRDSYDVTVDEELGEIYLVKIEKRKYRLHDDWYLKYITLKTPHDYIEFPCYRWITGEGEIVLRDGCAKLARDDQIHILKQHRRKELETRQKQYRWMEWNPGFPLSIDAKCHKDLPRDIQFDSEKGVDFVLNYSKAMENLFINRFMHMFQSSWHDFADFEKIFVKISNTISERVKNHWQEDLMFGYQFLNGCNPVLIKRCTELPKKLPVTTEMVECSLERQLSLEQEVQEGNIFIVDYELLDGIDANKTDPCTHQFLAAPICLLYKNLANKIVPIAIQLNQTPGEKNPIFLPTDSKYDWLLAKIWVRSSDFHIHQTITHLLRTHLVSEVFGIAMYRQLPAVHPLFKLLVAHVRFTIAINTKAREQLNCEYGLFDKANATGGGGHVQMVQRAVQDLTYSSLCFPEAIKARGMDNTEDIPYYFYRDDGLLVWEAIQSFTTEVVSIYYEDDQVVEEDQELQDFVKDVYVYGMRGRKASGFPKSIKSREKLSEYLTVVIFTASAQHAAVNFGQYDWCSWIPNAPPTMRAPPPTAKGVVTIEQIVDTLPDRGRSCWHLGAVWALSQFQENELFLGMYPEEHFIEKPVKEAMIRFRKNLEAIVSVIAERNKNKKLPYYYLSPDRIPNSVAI
Procedure: as §1

[3] = 2-thioxo-4-oxazolidinone series

SMILES: COc1cc(OC)c(OC)cc1C=C1OC(=S)NC1=O [Example 9, 2-Thioxo-5-[(2,4,5-trimethoxyphenyl)methylene]-4-oxazolidinone]
- HHB % Inhibition of Histamine Release at 33 µM (human basophils; [3]): *

- inhibition at 16 µM (cellular 5-lipoxygenase): 92%
SMILES: CC(C)(C)c1cc(C=C2OC(=S)NC2=O)cc(C(C)(C)C)c1O [Example 14]
- CFE Percent inhibition of carrageenan footpad edema (CFE) test ([1]; dose 1 mg/kg): 44.1 (1) %
- CFE Percent inhibition of carrageenan footpad edema (CFE) test ([1]; dose 3 mg/kg): 41.1 (3) %
- CFE Percent inhibition of carrageenan footpad edema (CFE) test ([1]; dose 10 mg/kg): 32.1 (10) %
- CFE Percent inhibition of carrageenan footpad edema (CFE) test ([1]; dose 30 mg/kg): 40.4 (30) %
- ARBC Percent inhibition of cellular 5-cyclooxygenase at 16 µM [2]: 86%

SMILES: COc1cc(C=C2SC(=O)NC2=O)cc(OC)c1O [Example 1, 5-[(4-Hydroxy-3,5-dimethoxyphenyl)methylene]-2,4-thiazolidinedione]
- inhibition at 33 µM (human basophils; thiazolidinedione series): 60%

SMILES: COc1cc(C=C2OC(=S)NC2=O)cc(OC)c1O [Example 6, 5-[(4-Hydroxy-3,5-dimethoxyphenyl)methylene]-2-thioxo-4-oxazolidinone]
- inhibition at 33 µM (human basophils; [3]): 89%

SMILES: COc1cc(C=C2OC(=S)NC2=O)ccc1O [Example 4, 5-[(4-Hydroxy-3-methoxyphenyl)methylene]-2-thioxo-4-oxazolidinone]
- inhibition at 33 µM (human basophils; [3]): 77%

SMILES: COc1ccc(C=C2OC(=S)NC2=O)cc1OC [Example 5, 5-[(3,4-Dimethoxyphenyl)methylene]-2-thioxo-4-oxazolidinone]
- inhibition at 33 µM (human basophils; [3]): 43%

SMILES: COc1cc(C=C2OC(=S)NC2=O)cc(Br)c1O [Example 8, 5-[(3-Bromo-4-hydroxy-5-methoxyphenyl)methylene]-2-thioxo-4-oxazolidinone]
- HHB % Inhibition of Histamine Release at 33 µM (human basophils; [3]): *

- inhibition at 16 µM (cellular 5-lipoxygenase): 67%
SMILES: COc1cc(C=C2OC(=O)NC2=O)cc(OC)c1O [Example 16, 5-[(4-Hydroxy-3,5-dimethoxyphenyl)methylene]-2,4-oxazolidinedione]
- ARBC Percent inhibition of cellular 5-cyclooxygenase at 16 µM [2]: N^(4)

SMILES: COc1cc(C=C2SC(=O)NC2=O)ccc1O [Example 3]
- inhibition at 33 µM (human basophils; thiazolidinedione series): 81%

SMILES: COc1cc(C=C2OC(=S)NC2=O)cc(OC)c1OC [Example 10, 2-Thioxo-5-[(3,4,5-trimethoxyphenyl)methylene]-4-oxazolidinone]
- inhibition at 33 µM (human basophils; [3]): 76%

- inhibition at 16 µM (cellular 5-lipoxygenase): 100%
SMILES: CC(C)(C)c1cc(C=C2SC(=O)NC2=O)cc(C(C)(C)C)c1O [Example 2, 5-[[3,5-Bis(1,1-dimethylethyl)-4-hydroxyphenyl]methylene]-2,4-thiazolidinedione]
- CFE Percent inhibition of carrageenan footpad edema (CFE) test ([1]; dose 1 mg/kg): 31.8 (1) %
- CFE Percent inhibition of carrageenan footpad edema (CFE) test ([1]; dose 3 mg/kg): 39.8 (3) %
- CFE Percent inhibition of carrageenan footpad edema (CFE) test ([1]; dose 10 mg/kg): 53.7 (10) %
- CFE Percent inhibition of carrageenan footpad edema (CFE) test ([1]; dose 30 mg/kg): 58.8 (30) %
- ARBC Percent inhibition of cellular 5-cyclooxygenase at 16 µM [2]: 95%
- inhibition at 33 µM (human basophils; thiazolidinedione series): 49%

- inhibition at 16 µM (cellular 5-lipoxygenase): 95%
SMILES: CC(C)(C)c1cc(C=C2OC(=O)NC2=O)cc(C(C)(C)C)c1O [Example 15]
- CFE Percent inhibition of carrageenan footpad edema (CFE) test ([1]; dose 1 mg/kg): 18.5 (1) %
- CFE Percent inhibition of carrageenan footpad edema (CFE) test ([1]; dose 3 mg/kg): 23.5 (3) %
- CFE Percent inhibition of carrageenan footpad edema (CFE) test ([1]; dose 10 mg/kg): 36.8 (10) %
- CFE Percent inhibition of carrageenan footpad edema (CFE) test ([1]; dose 30 mg/kg): 39.4 (30) %
- ARBC Percent inhibition of cellular 5-cyclooxygenase at 16 µM [2]: 89%

SMILES: O=C1NC(=S)OC1=Cc1ccc(O)c(Br)c1 [Example 13, 5-[(3-Bromo-4-hydroxyphenyl)methylene]-2-thioxo-4-oxazolidinone]
- inhibition at 33 µM (human basophils; [3]): 66%
